The record followed here is paper doi:10.1101/119818v1 (biorxiv, 2017).

Molecules are shown by their SMILES.

This test has as its target T1, PARP3 (Homo sapiens, UniProt Q9Y6F1).
T1 sequence (Q9Y6F1 1-533): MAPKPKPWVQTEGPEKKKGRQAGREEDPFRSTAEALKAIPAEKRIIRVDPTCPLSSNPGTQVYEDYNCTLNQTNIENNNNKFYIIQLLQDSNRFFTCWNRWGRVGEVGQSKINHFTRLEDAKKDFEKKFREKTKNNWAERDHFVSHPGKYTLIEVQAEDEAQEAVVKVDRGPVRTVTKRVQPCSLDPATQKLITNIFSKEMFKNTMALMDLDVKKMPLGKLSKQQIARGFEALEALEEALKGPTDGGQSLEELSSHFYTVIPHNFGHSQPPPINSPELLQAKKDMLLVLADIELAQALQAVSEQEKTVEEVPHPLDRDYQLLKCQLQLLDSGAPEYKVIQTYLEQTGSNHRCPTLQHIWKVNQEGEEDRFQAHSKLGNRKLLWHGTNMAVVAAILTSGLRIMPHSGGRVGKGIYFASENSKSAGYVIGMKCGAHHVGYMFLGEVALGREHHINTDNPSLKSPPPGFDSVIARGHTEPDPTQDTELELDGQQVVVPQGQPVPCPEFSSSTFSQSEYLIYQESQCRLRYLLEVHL
Nature of the test: in vitro enzymatic inhibition assay, concentration response. The test is classed as biochemical.

In the case of `NC(=O)c1cccc2[nH]c(-c3ccc([C@@H]4CCCN4)cc3F)nc12` [A-966492], the 50% inhibitory concentration (IC50) was 728 nM.
